# According to patent publication US20230114207A1, “THE COMBINATION OF CYCLIN DEPENDENT KINASE 7 INHIBITOR AND IMMUNOTHERAPY FOR TREATMENT OF CANCER” (Dana-Farber Cancer Institute, Inc., priority 2019, published 2023):
# Experiments:
# [1] = tested on: C-terminal domain (CTD) phosphorylation of RNA Pol II; experiment: Western blotting of RNA Pol II CTD phosphorylation in SCLC lines; format: cell-based, mouse, human; settings: 24 hr
# Method: Cells in culture were collected by centrifuging at 1,500 rpm and then washed with ice-cold PBS twice to completely remove residual medium. RIPA lysis buffer (Thermo Fisher Scientific, Cat #89900) supplemented with Halt™ Protease and Phosphatase Inhibitor Cocktail (Thermo Fisher Scientific, Cat #78440) was added to cell pellets to extract protein. Protein concentrations in lysates were measured by Pierce™ BCA Protein Assay Kit (Thermo Fisher Scientific, Cat #23225) and followed by the addition of SDS loading buffer (6×) and heated at 95° C. for 5 min. Equal amount of protein samples was subjected to 4-20% gradient gel SDS-PAGE and transferred to a nitrocellulose membrane (Bio-Rad, Cat #1704271). The membrane was blocked in Odyssey® Blocking Buffer (LI-COR, Cat #927-50003) at room temperature for 1 hour and incubated with appropriate antibodies at 4° C. overnight (Key Resources Table). Antibodies were diluted in TBST (TBS with 0.1% Tween) with 20% LI-COR Odyssey Blocking Buffer. On the next day, the membrane was washed with TBST (TBS with 0.1% Tween) four times and incubated with appropriate secondary antibodies (LI-COR, anti-Rabbit, Cat #925-32213; anti-Mouse, Cat #925-68072) at room temperature for 1 hour. Membranes were imaged using the LI-COR Odyssey® Imaging System.
# DMS79 cells = experiment: BrdU analysis; format: cell-based, human; settings: 100 nM, 24 and 48 hour
# Method: Cells were seeded in 6-well plates (0.5-1×10^6 cells/well) in media and treated with YKL-5-124 at indicated concentrations and time points. Prior to collection, cells were pulsed with […] BrdU (BD Biosciences, #559619) for 2-4 hr (depending on cell line doubling time) and collected by centrifugation. Hereafter cells were permeabilized, fixated and stained according to BrdU kit instruction (BD Biosciences, Cat #559619). Cells were gated for BrdU incorporation (FITC) and 7-aminoactinomycin D (7-AAD) to quantify cells in G1, S (BrdU positive) and G2/M.
# RPP631 cells [2] = experiment: EdU and MCM2 imaging by STORM; format: cell-based, mouse; settings: 100 nM, 48 and 72 hr
# Method: RPP631 cells were incubated in the presence of 100 nM YKL-5-124 for 48-72 hr. EdU was pulsed during the last 30 minutes of YKL-5-124 treatment. Treated cells were pre-extracted using 0.5% Triton in CSK buffer (10 mM Hepes, 300 mM Sucrose, 100 mM NaCl, and 3 mM MgCl2, pH=7.6) for 10 minutes, and fixed with paraformaldehyde (4%) for 30 minutes. Cells were then rinsed 3 times with PBS and blocked (2% glycine, 2% BSA, 0.2% gelatin, and 50 mM NH4Cl in PBS) overnight at 4° C. for further staining. […]
# STORM imaging was performed on a customized inverted microscope. […] Cell samples were sequentially illuminated with 639 and 750 laser lines and the emitted fluorescence was collected by the same objective with a 2× magnification tube lens (Diagnostic Instruments). The fluorescence was then filtered by single band filters (Semrock FF01-676/37 and FF02-809/81) switched in a filter wheel accordingly. […]
# Each 2000-frame single-molecule image stack was submitted to a home-built software for precise single-molecule localization. […] The fitting accuracy was evaluated using Cramer-Rao Lower Bound (CRLB). Note that the patterned read-out noise of the sCMOS camera was calibrated before imaging. Such read-out noise for each pixel was approximated into a Gaussian distribution and convolved with the Poisson shot noise for MLE fitting. […] The number of fluorophores is proportional to the quantity of EdU and MCM2. […]
# RPP631 cells [3] = experiment: Bulk RNA-sequencing and GSEA; format: cell-based, mouse; settings: 48 hr
# Method: Paired-end reads were aligned to mouse mm10 genome using STAR (v2.5.2b). Reads with good mapping quality (MAPQ>30) that aligned to genomic exons were counted using featureCounts (mm10 Ensembl 93) to generate a table with counts for each gene. Differential gene expression analysis was performed using the R package DESeq2 using the lfcShrink function. […] Gene set enrichment analysis (GSEA) was performed on a list of genes ranked from high to low DESeq2 estimated fold-change using the GSEAPreRanked function with enrichment statistic classic and 1000 permutations.
structure (smiles),measurement,setting,value
C=CC(=O)Nc1ccc(C(=O)Nc2n[nH]c3c2CN(C(=O)N[C@H](CN(C)C)c2ccccc2)C3(C)C)cc1 [YKL-5-124],"C-terminal domain (CTD) phosphorylation of RNA Pol II (Ser2, Ser5)",[1],no effect
same,BrdU-incorporated S-phase cells,DMS79 cells,significant decrease
same,EdU content in each nucleus and in each focus,RPP631 cells [2],dramatic decrease
same,MCM2 content in each nucleus and replication focus,RPP631 cells [2],significant decline
same,expression of pro-inflammatory cytokines and chemokines incl. TNFα pathway components and Cxcl10 (heatmaps),RPP631 cells [3],increased expression
same,"genes within GSEA terms associated with cell cycle, mitosis and E2F targets",RPP631 cells [3],downregulated
same,expression of SCLC SE-associated genes,RPP631 cells [3]; compared with THZ1,little effect
same,"'Interferon gamma response', 'TNFα signaling' and 'Inflammatory response' Hallmarks signatures (GSEA)",RPP631 cells [3]; three of the top five,most positively regulated
